Assay results reported in the NIST ThermoML archive (doi:10.1016/j.jct.2014.05.015).
± gives the expanded uncertainty stated by the source.

What was measured:
[1] = 100 kPa, Liquid
[2] = mn = molality of the nth substance listed, in mol/kg; conditions: 100 kPa, Liquid; for speed of sound: Frequency=3 MHz, Sing-around technique in a fixed-path interferometer; for mass density: Vibrating tube method

For `O` [water], the mass density ([1]; 308.15 K, Vibrating tube method) was 994.061 ± 0.26 kg/m3 and the speed of sound ([1]; 313.15 K, Frequency=3 MHz, Sing-around technique in a fixed-path interferometer) was 1528.8 ± 1.6 m/s.

Molecule `O=C[C@H](O)[C@@H](O)[C@H](O)[C@H](O)CO` [D-glucose] + O has a speed of sound ([2]; 293.15 K, m1 = 0.1) of 1489.2 ± 1.6 m/s, a speed of sound ([2]; 293.15 K, m1 = 0.2) of 1496 ± 1.6 m/s and a speed of sound ([2]; 293.15 K, m1 = 0.3) of 1502.5 ± 1.6 m/s. The mass density ([2]; 293.15 K, m1 = 0.1) was 1005.07 ± 0.26 kg/m3, the mass density ([2]; 293.15 K, m1 = 0.2) was 1012.08 ± 0.27 kg/m3 and the mass density ([2]; 293.15 K, m1 = 0.3) was 1018.81 ± 0.27 kg/m3. The speed of sound ([2]; 298.15 K, m1 = 0.1) was 1502.9 ± 1.6 m/s, the speed of sound ([2]; 298.15 K, m1 = 0.2) was 1509.4 ± 1.6 m/s and the speed of sound ([2]; 298.15 K, m1 = 0.3) was 1515.8 ± 1.6 m/s. The mass density ([2]; 298.15 K, m1 = 0.1) was 1003.87 ± 0.26 kg/m3, the mass density ([2]; 298.15 K, m1 = 0.2) was 1010.89 ± 0.27 kg/m3 and the mass density ([2]; 298.15 K, m1 = 0.3) was 1017.52 ± 0.27 kg/m3. It also gave a speed of sound ([2]; 303.15 K, m1 = 0.1) of 1514.8 ± 1.6 m/s, a speed of sound ([2]; 303.15 K, m1 = 0.2) of 1521.2 ± 1.6 m/s and a speed of sound ([2]; 303.15 K, m1 = 0.3) of 1527.3 ± 1.6 m/s. It also gave a mass density ([2]; 303.15 K, m1 = 0.1) of 1002.44 ± 0.26 kg/m3, a mass density ([2]; 303.15 K, m1 = 0.3) of 1016.01 ± 0.27 kg/m3 and a speed of sound ([2]; 308.15 K, m1 = 0.1) of 1525.3 ± 1.6 m/s. It also gave a speed of sound ([2]; 308.15 K, m1 = 0.2) of 1531.2 ± 1.6 m/s, a speed of sound ([2]; 308.15 K, m1 = 0.3) of 1537.2 ± 1.6 m/s and a mass density ([2]; 308.15 K, m1 = 0.1) of 1000.79 ± 0.26 kg/m3. It also gave a mass density ([2]; 308.15 K, m1 = 0.3) of 1014.29 ± 0.27 kg/m3, a speed of sound ([2]; 313.15 K, m1 = 0.1) of 1534.1 ± 1.6 m/s and a speed of sound ([2]; 313.15 K, m1 = 0.2) of 1539.8 ± 1.6 m/s. For the same molecule, the speed of sound ([2]; 313.15 K, m1 = 0.3) was 1545.7 ± 1.6 m/s, the mass density ([2]; 313.15 K, m1 = 0.1) was 998.945 ± 0.26 kg/m3 and the mass density ([2]; 313.15 K, m1 = 0.2) was 1005.86 ± 0.26 kg/m3. The mass density ([2]; 313.15 K, m1 = 0.3) was 1012.36 ± 0.27 kg/m3.

`OC[C@H]1O[C@@](CO)(O[C@H]2O[C@H](CO)[C@@H](O)[C@H](O)[C@H]2O)[C@@H](O)[C@@H]1O` [D-sucrose] + O showed a speed of sound ([2]; 293.15 K, m1 = 0.1) of 1492.3 ± 1.3 m/s, a speed of sound ([2]; 293.15 K, m1 = 0.2) of 1502.4 ± 1.3 m/s and a speed of sound ([2]; 293.15 K, m1 = 0.3) of 1512.9 ± 1.3 m/s. The mass density ([2]; 293.15 K, m1 = 0.1) was 1011.49 ± 0.14 kg/m3, the mass density ([2]; 293.15 K, m1 = 0.2) was 1024.67 ± 0.14 kg/m3 and the mass density ([2]; 293.15 K, m1 = 0.3) was 1037.84 ± 0.14 kg/m3. For the same molecule, the speed of sound ([2]; 298.15 K, m1 = 0.1) was 1505.9 ± 1.3 m/s, the speed of sound ([2]; 298.15 K, m1 = 0.2) was 1515.7 ± 1.3 m/s and the speed of sound ([2]; 298.15 K, m1 = 0.3) was 1525.7 ± 1.3 m/s. It also gave a mass density ([2]; 298.15 K, m1 = 0.1) of 1010.26 ± 0.14 kg/m3, a mass density ([2]; 298.15 K, m1 = 0.2) of 1023.37 ± 0.14 kg/m3 and a mass density ([2]; 298.15 K, m1 = 0.3) of 1036.47 ± 0.14 kg/m3. The speed of sound ([2]; 303.15 K, m1 = 0.1) was 1517.8 ± 1.3 m/s, the speed of sound ([2]; 303.15 K, m1 = 0.2) was 1527 ± 1.3 m/s and the speed of sound ([2]; 303.15 K, m1 = 0.3) was 1536.8 ± 1.3 m/s. For the same molecule, the mass density ([2]; 303.15 K, m1 = 0.1) was 1008.81 ± 0.14 kg/m3, the mass density ([2]; 303.15 K, m1 = 0.2) was 1021.85 ± 0.14 kg/m3 and the mass density ([2]; 303.15 K, m1 = 0.3) was 1034.89 ± 0.14 kg/m3. For the same molecule, the speed of sound ([2]; 308.15 K, m1 = 0.1) was 1528.1 ± 1.3 m/s, the speed of sound ([2]; 308.15 K, m1 = 0.2) was 1536.9 ± 1.3 m/s and the speed of sound ([2]; 308.15 K, m1 = 0.3) was 1546.3 ± 1.3 m/s. The mass density ([2]; 308.15 K, m1 = 0.1) was 1007.14 ± 0.13 kg/m3, the mass density ([2]; 308.15 K, m1 = 0.2) was 1020.13 ± 0.14 kg/m3 and the mass density ([2]; 308.15 K, m1 = 0.3) was 1033.11 ± 0.14 kg/m3. For the same molecule, the speed of sound ([2]; 313.15 K, m1 = 0.1) was 1536.7 ± 1.3 m/s, the speed of sound ([2]; 313.15 K, m1 = 0.2) was 1545.4 ± 1.3 m/s and the speed of sound ([2]; 313.15 K, m1 = 0.3) was 1554.2 ± 1.4 m/s. For the same molecule, the mass density ([2]; 313.15 K, m1 = 0.1) was 1005.28 ± 0.13 kg/m3, the mass density ([2]; 313.15 K, m1 = 0.2) was 1018.22 ± 0.14 kg/m3 and the mass density ([2]; 313.15 K, m1 = 0.3) was 1031.16 ± 0.14 kg/m3.
